Measurements reported in a melting point compilation (Tetko et al.; mined from patent text by program, amines drawn as free bases though some values may be those of a salt).

Row | SMILES | melting point
1 | NC(=O)CC[C@H]1CN(c2ccc(C(=O)c3cnc4ccc(C(F)(F)F)cn34)cc2)C(=O)O1 | 243 to 245 °C
2 | COC(=O)N(C)CCc1ccc2[nH]cc(S(=O)(=O)c3ccccc3)c2c1 | 195 to 197 °C
3 | Nc1c(F)c(N2CCC(n3cncn3)C2)c(F)c2c1c(=O)c(C(=O)O)cn2C1CC1 (stereo not given) | 240 °C
4 | CN(CCc1ccc2c(c1)oc(=O)n2C)Cc1ccccc1 | 72 to 73 °C
5 | Cn1ccc2c3c(C=O)c4ccccc4cc3ccc21 | 175 to 176 °C
6 | BrCc1cccc2c(-c3ccccc3)onc12 | 125 to 126 °C
7 | CN1C(=O)N(CC(COc2ccc(-c3ccc(C#N)cc3)cc2)N(O)C=O)C(=O)C1(C)C (stereo not given) | 65 to 67 °C
8 | COc1ccc(C(=O)N2CCOc3ccc(C4=NNC(=O)CC4)cc32)cc1OC | 207 to 208 °C
9 | C[C@H](Nc1ncnc2[nH]cnc12)c1oc2ccccc2c(=O)c1-c1ccccc1 | 135 to 138 °C
10 | C=CCN1C(=O)C[N+]([O-])=C(c2ccccc2F)c2cc(Cl)ccc21 | 183 °C
11 | CC(C)COc1ccc(C(=O)N/C(=C\c2ccc(OC(F)F)cc2)C(=O)NCCO)cc1 | 75 to 78 °C
12 | CON=C(c1noc(C)n1)c1cc(Cl)ccc1OCc1ccc(Cl)cc1 | 127 to 128 °C
13 | N#CCC(C#N)NNc1c(Cl)cc(C(F)(F)F)cc1Cl (stereo not given) | 101 to 102 °C
14 | Cc1cnc(NC(=O)C2=C(O)c3ccc(F)cc3S(=O)(=O)N2C)s1 | 233 °C
15 | CCCc1nc2c(N)nc3cc(-c4ccccc4)ccc3c2n1NC(C)C | 217 to 220 °C
16 | COCc1c(C(=O)OC(C)C)ncc2[nH]c3c(c12)C(=O)CCC3 | 243 to 245 °C
17 | O=NN(CCCl)C(=O)NCCOC(=O)c1cccnc1 | 63 to 64 °C
18 | O=c1cc(-c2ccsc2)c2ccc(O)cc2o1 | 234 to 236 °C
19 | CCCCC(C=C1c2cc3c(cc2-c2sc(-c4cc5sccc5s4)cc21)C(=CC(CC)CCCC)c1cc(-c2cc4sccc4s2)sc1-3)CC (stereo not given) | 320 °C
20 | Cc1cccc(OCC2=NCCN2S(C)(=O)=O)c1C | 142 to 143 °C
21 | COc1ccc(OCc2cccc(OCc3ccc4ccccc4n3)c2)c(C(=O)O)c1 | 248 to 249 °C
22 | Cn1ncc2c1-c1c(Oc3ccc(-c4ccc(F)cc4)nc3)sc(C(N)=O)c1CC2 | 236 to 237 °C

Row | SMILES | melting point
23 | O=C1Cc2cccc(C(=O)c3ccc(F)cc3)c2N1 | 185 to 187 °C
24 | FC(F)(F)c1ccc2c(c1)C(Cl)Cc1c(Cl)cccc1S2 (stereo not given) | 88 to 90 °C
25 | Fc1ccc(-c2[nH]nc(C3=CC4CCCN4CC3)c2-c2ccncc2)cc1 (stereo not given) | 204 to 208 °C
26 | CCOC(=O)C1N=c2ccsc2=CN1N (stereo not given) | 139 to 141 °C
27 | CCC(CC)c1ccc(Cl)c2nc(Nc3c(C)cc(Br)cc3OC)n(C)c12 | 218 to 220 °C
28 | CCOC(=O)/C=C(\C)c1cccc([N+](=O)[O-])c1 | 43 to 44 °C
29 | OCC[C@H]1CN(Cc2ccccc2)CCN1 | 78.9 to 80.4 °C
30 | CC(=O)c1ccc2c(c1)NC(NC(C)C)=NS2(=O)=O | 305 to 308 °C
31 | CC(=O)c1cc(O)c(C)cc1O | 144 to 146 °C
32 | CCOCc1nc2c(N)nc(C)c(C)c2n1CCCN | 127 °C
33 | CC(C)(C1CCCCC1)C(NC(=O)c1ccc(Cl)cc1)Nc1c(Nc2cccnc2)c(=O)c1=O (stereo not given) | 275 to 276 °C
34 | CCOC(=O)c1c(C)ncn(-c2ccc(Cl)cc2)c1=O | 98 to 100 °C
35 | NS(=O)(=O)OCCCCCOS(N)(=O)=O | 96.5 to 99 °C
36 | COC(=O)c1ccccc1C(=O)OCC1CN(C(=O)Oc2ccccc2)CCC1c1ccc(F)cc1 (stereo not given) | 139 to 141 °C
37 | O=C(O)c1cnn2c(C(F)(F)F)cc(-c3ccc(C(F)(F)F)c(Cl)c3)nc12 | 244 °C
38 | CCCCOCCOc1ccc(-c2ccc3c(c2)C=C(C(=O)Nc2ccc(S(=O)CCc4nncn4CCC)cc2)CCN3CCC)cc1 (stereo not given) | 93 to 101 °C
39 | CC(C)(C)CNc1nc(Cl)cc(N2CCCC2)n1 | 147 to 150 °C
40 | Nc1cc(C#Cc2ccc3c(C(=O)Nc4cccc(C(F)(F)F)c4)cccc3c2)ncn1 | 217 to 220 °C
41 | COC(=O)CCNCC1CC2c3cc(C(C)(C)C)cc4[nH]cc(c34)CC2N(C)C1 (stereo not given) | 153 to 157 °C
42 | CN1Cc2c(-c3ncc(CN4CCCCC4)o3)ncn2-c2ccc(F)cc2C1=O | 191 to 193 °C
43 | CN1CCN(c2cccc3ccc(Nc4ncccc4NC(=O)c4ccccc4)cc23)CC1 | 205 to 207 °C
44 | CCCCOc1ccccc1-c1nc(Cl)cc(OCCC(C)C)n1 | 47 to 50 °C

Row | SMILES | melting point
45 | O=S(=O)(Nc1cc(Cl)c(Oc2nc3ccc(Cl)cc3s2)c(Cl)c1)c1ccc(Cl)cc1Cl | 73 to 75 °C
46 | CCc1nc2c(C)c(C#N)c(C)cc2n1-c1ccc(CCNC(=O)NS(=O)(=O)c2ccc(C)cc2)cc1 | 140 to 145 °C
47 | CNC(=O)Oc1ccc2c(c1)CCN2 | 109 to 112 °C
48 | CCC(=O)N(CC)c1cccc(-c2ccc3nncn3n2)c1 | 127 to 130 °C
49 | Cc1ccc(S(=O)(=O)N[C@@H](C)C(=O)Oc2c[nH]c(-c3ccccc3)c2)cc1 | 154 to 155 °C
50 | CN(C)CC(=O)Nc1ccccc1[N+](=O)[O-] | 44 to 47 °C
51 | CCc1ccc(-c2ccc(C(C)=S)cc2)cc1 | 84 to 86 °C
52 | Cc1cc(C)c(N2CCCc3c2nn(C)c3NC(=O)OC(C)(C)C)c(Cl)c1 | 171 to 176 °C
53 | Cc1cccc2c1OC(c1ccccc1)([N+](=O)[O-])C2 (stereo not given) | 122 to 126 °C
54 | CCCCCc1ncc(C(=O)O)s1 | 90 °C
55 | CC(C)On1c(C(C)(C)C)nc2c(N)nc3ccccc3c21 | 187 to 189 °C
56 | COc1cnnc(Oc2ccnc(OC(F)F)c2)c1 | 119 to 120 °C
57 | CCS(=O)(=O)Nc1nc(CCCN2CCN(C(c3ccccc3)c3ccccc3)CC2)cs1 | 162 to 164 °C
58 | CC(=O)C(=Cc1ccc(S(C)(=O)=O)c(Br)c1)C(C)=O | 135 to 139 °C
59 | CC1(C)N(Cc2ccc(C(=O)Cl)cc2)C(=O)C(=O)N1Cc1ccc(C(=O)Cl)cc1 | 232 to 235 °C
60 | COC(=O)CCCC=C(c1cc(C)c2oc(=O)n(C)c2c1)c1cc(C)c2oc(=O)n(C)c2c1 | 164 to 165 °C
61 | Cc1ccc(C(=O)NC/C=C\COc2cc(CN3CCCCC3)ccn2)s1 | 71 to 73 °C
62 | Cc1cccc(-c2nc3ccc(OCCN(C)C)cc3n2Cc2ccccc2Br)c1 | 71 °C
63 | CCOC1=NS(=O)(=O)N(C)C(Cl)=N1 | 75 to 80 °C
64 | CCCC(=O)C1=C(O)CC(c2c(C)c(C)c(C)c3ccoc23)CC1=O (stereo not given) | 130 °C

The next lines start with the values.

Row | melting point | SMILES
65 | 77 °C | CC(C)(C)OC(=O)NCc1cc([N+](=O)[O-])ccc1Cl
66 | 204 to 205 °C | CC(C)(C)NCC(O)COc1cccc2c1CNC(=O)N2 (stereo not given)
67 | 145 to 148 °C | CN(c1ccncc1)n1cccc1CO
68 | 105 to 108 °C | CCN(CC)CCOc1ccc(NC(=O)C#Cc2ccc(-c3ccccc3)cc2)cc1Cl
69 | 113 to 116 °C | CCOC(=O)C1=C(C)Nc2ccccc2N(C)C1c1cccc([N+](=O)[O-])c1 (stereo not given)
70 | 274 to 275 °C | O=C1C2=C(CCCC2)C(=O)N1c1cc2c(cc1F)nnn2-c1ccccc1O
71 | 45 to 46 °C | Cc1cc(SCc2sc(-c3ccc(F)cc3)nc2C)ccc1OCC(=O)O
72 | 78 °C | COC(=O)CCCc1cc2nc(C(F)(F)F)ccc2n1S(=O)(=O)c1ccc(C(C)C)cc1
73 | 57 to 65 °C | CC(C)(C)OCC1CNC(=O)O1 (stereo not given)
74 | 103 to 105 °C | CCOC(=O)c1cn(-c2cccc(Oc3ccc(Br)cn3)c2)cn1
75 | 127 to 129 °C | CCN(CC)c1ccnc2sc(C(N)=O)c(N)c12
76 | 92 to 97 °C | CC(C)CCNCC(O)C(CC(C)C)NC(=O)C(Cc1c[nH]cn1)NC(=O)C(CC(=O)NCCc1ccccc1)Cc1cccc2ccccc12 (mixture of isomers)
77 | 179 °C | Cn1cncc1C(c1ccc(Cl)cc1)c1ccc(N)c(C(=O)c2cccc(Cl)c2)c1 (stereo not given)
78 | 269 to 272 °C | Nc1nc(-n2cc(C(=O)O)c(=O)c3cc(F)c(N4CC(O)C4)c(F)c32)c(F)cc1F
79 | 74 to 77 °C | COc1ccc(C=CC=O)cc1OC
80 | 99 to 101 °C | Fc1ccc(CCN2CCC(n3ccc4ccc(Br)cc43)CC2)cc1
81 | 88 to 90 °C | O=C(NCCCCn1ccnc1)c1ccco1
82 | 145 to 147 °C | Cc1ccn(-c2nc(C)c(C(=O)NCc3ccccc3)s2)c(=O)c1

Row | melting point | SMILES
83 | 209 to 211 °C | CC(C)Cn1c(CNC(=O)OC(C)(C)C)c(-c2ccccc2)c2cc(-c3nc(C#N)cs3)ccc2c1=O
84 | 190 to 195 °C | COc1cc2c(cc1Nc1ncc(Cl)c(Nc3ccccc3S(=O)(=O)N(C)C)n1)CCNC(=O)C2
85 | 235 to 237 °C | COc1cc2nc(N3CCN(C(=O)C=Cc4ccccn4)CC3)nc(N)c2cc1OC
86 | 189 to 191 °C | c1ccc(-c2ccc(Nc3nnc(Cc4ccncc4)c4ccccc34)cc2)cc1
87 | 170 to 172 °C | CCCc1c(OCCCCCC(=O)c2ccc3cc(O)c(O)cc3c2)ccc(C(=O)OCC)c1O
88 | 296 to 297 °C | COc1ccc(-n2c(=O)[nH]c3c(-c4ccc(C(F)(F)F)cc4F)ncnc32)cc1
89 | 147 to 149 °C | c1cc(-c2ccnc3nc(N4CCNCC4)nn23)ccn1
90 | 205 to 206 °C | CN1CCC(=C2c3ccccc3CC(O)c3ccccc32)CC1 (stereo not given)
91 | 82 to 86 °C | COC(=O)c1cnc(C(=O)OC)c([N+](=O)[O-])c1
92 | 92 to 93 °C | CCCCCCCCCCCCCCCCCCNC(=O)OCC(CO)OC(=O)NC (stereo not given)
93 | 302 to 304 °C | CC(=O)Nc1nc2c(Oc3cc(-c4ccc(C(F)(F)F)cc4O)ncn3)cccc2s1
94 | 186 to 188 °C | O=C1CC2Cc3ccccc3N2CCN1 (stereo not given)
95 | 37 °C | BrC1COCOCC1Br (stereo not given)
96 | 168 to 169 °C | COc1cc2c(c3c1OC(C)(C)C3)C(c1ccccc1)=NC(COC(C)=O)C2 (stereo not given)
97 | 130 to 131 °C | CC(C)(C)OC(=O)NS(N)(=O)=O
98 | 108 to 109 °C | Cc1cc2c(cc1N1CCOCC1)OC(=O)C2C (stereo not given)
99 | 207 to 208 °C | CC1(C)OC(=O)N(c2ccc(F)c(F)c2)c2ccccc21
100 | 220 to 222 °C | CN(C(=O)OC(C)(C)C)C1CCN(c2nc(N3CCOCC3)nc(-n3c(C(F)F)nc4c(O)cccc43)n2)CC1
